Assay [1] deals with L. gasseri MCC2 DSM 23882. In words: Antibiotic susceptibility, E-test. Format: cell-based. The procedure: (§1) Methodology: The susceptibility of L. plantarum MCC1 and L. gasseri MCC2 to antibiotics was tested with the help of E-test (AB Biodisk, Solna). The minimum inhibitory concentration was determined according to the epidemiological breakpoints recommended by the European Commission.

Assay [2] deals with Lactobacillus spp. To be noted: European Commission 2002; cited from earlier work.
Assay [3] relates to Obligately homofermentative lactobacilli (OHOL). To be noted: FEEDAP Panel EFSA 2008; cited from earlier work.
Assay [4] has as its system L. plantarum MCC1 DSM 23881. Put plainly: Antibiotic susceptibility, E-test. The format is cell-based. The settings on record: for resistance of L. plantarum MCC1 to the antibiotic: according to European Commission indicators for lactobacilli. The procedure: as §1
Assay [5] deals with L. plantarum. The settings on record: FEEDAP Panel EFSA 2008; cited from earlier work.
The mark [6] stands for this setting: E-test, against L. gasseri MCC2.
Where [7] appears, read: Lactiplantibacillus plantarum, DSM23881.
[8] abbreviates: Lactobacillus gasseri, DSM23882, read-out: MIC.
[9] abbreviates: Lactiplantibacillus plantarum, DSM23881, read-out: MIC.
Setting [10] is: E-test, against L. plantarum MCC1.

Values after ≈ are worked out from the molar mass of the structure shown. Read-outs that look alike come from different tables or passages of the source.

Regarding Trim/sulfam, the minimum inhibitory concentration (MIC) (commonly the least concentration at which growth counts as inhibited) in assay [1] (setting [6]) is greater than 32 µg/mL. In addition, in assay [2], the “MIC breakpoint for resistance, Lactobacillus spp” value is 32 µg/mL.

On to `CN[C@H](CC(C)C)C(=O)N[C@H]1C(=O)N[C@@H](CC(N)=O)C(=O)N[C@H]2C(=O)N[C@H]3C(=O)N[C@H](C(=O)N[C@H](C(=O)O)c4cc(O)cc(O)c4-c4cc3ccc4O)[C@H](O)c3ccc(c(Cl)c3)Oc3cc2cc(c3O[C@@H]2O[C@H](CO)[C@@H](O)[C@H](O)[C@H]2O[C@H]2C[C@](C)(N)[C@H](O)[C@H](C)O2)Oc2ccc(cc2Cl)[C@H]1O` [Vancomycin], for which the “MIC breakpoint for resistance, OHOL” value in assay [3] was 2 µg/mL. In addition, the MIC was found to be 0.75 µg/mL (≈ 0.518 µM) in assay [1] (Lactobacillus gasseri, DSM23882) and 256 µg/mL (≈ 177 µM) in assay [4] (setting [7]). In addition, the “resistance of L. plantarum MCC1 to the antibiotic” value in assay [4] is given as “resistant”. Moreover, the “MIC breakpoint for resistance, Lactobacillus spp” value in assay [2] was 4 µg/mL.

For `O=C(N[C@H](CO)[C@H](O)c1ccc([N+](=O)[O-])cc1)C(Cl)Cl` [Chloramphenicol], in assay [3], the “MIC breakpoint for resistance, OHOL” value was 4 µg/mL. The “MIC breakpoint for resistance, L. plantarum” value (“MIC breakpoint … L. plantarum” for short) in assay [5] is 8 µg/mL. The MIC in assay [1] (setting [8]) turned out to be 0.75 µg/mL (≈ 2.32 µM); in assay [4] (setting [9]), 1.5 µg/mL (≈ 4.64 µM). Besides, the “MIC breakpoint for resistance, Lactobacillus spp” value in assay [2] is 16 µg/mL.

As for `CC[C@H]1OC(=O)[C@H](C)[C@@H](O[C@H]2C[C@@](C)(OC)[C@@H](O)[C@H](C)O2)[C@H](C)[C@@H](O[C@@H]2O[C@H](C)C[C@H](N(C)C)[C@H]2O)[C@](C)(O)C[C@@H](C)C(=O)[C@H](C)[C@@H](O)[C@]1(C)O` [Erythromycin], the “MIC breakpoint for resistance, OHOL” value in assay [3] is 1 µg/mL. Besides, the “MIC breakpoint … L. plantarum” value in assay [5] was 1 µg/mL. Further, the minimal inhibitory concentration (MIC) in assay [1] (setting [8]) was 0.047 µg/mL (≈ 0.064 µM); in assay [4] (setting [7]), 0.125 µg/mL (≈ 0.17 µM). Further, the “MIC breakpoint for resistance, Lactobacillus spp” value in assay [2] was 4 µg/mL.

On to `C[C@@H](O)[C@H]1C(=O)N2C(C(=O)O)=C(SCCN=CN)C[C@H]12` [Imipenem], for which the MIC in assay [1] (setting [8]) is 0.047 µg/mL (≈ 0.157 µM).

As to `CO[C@@]1(NC(=O)Cc2cccs2)C(=O)N2C(C(=O)O)=C(COC(N)=O)CS[C@@H]21` [Cefoxitin], the MIC in assay [1] (setting [8]) worked out at 1.5 µg/mL (≈ 3.51 µM); in assay [4] (setting [9]), 256 µg/mL (≈ 599 µM). In addition, the “resistance of L. plantarum MCC1 to the antibiotic” value in assay [4] is on record as “resistant”. For the same compound, the “MIC breakpoint for resistance, Lactobacillus spp” value in assay [2] was 4 µg/mL.

On to Quinupristin/dalfopristin, for which the “MIC breakpoint for resistance, OHOL” value in assay [3] was 4 µg/mL. For the same compound, the “MIC breakpoint … L. plantarum” value in assay [5] was 4 µg/mL. Besides, the MIC in assay [4] (setting [10]) amounted to 1 µg/mL. The “MIC breakpoint for resistance, Lactobacillus spp” value in assay [2] is 4 µg/mL.

For the compound `CO/N=C(\C(=O)N[C@@H]1C(=O)N2C(C(=O)O)=C(COC(N)=O)CS[C@H]12)c1ccco1` [Cefuroxim], the figures for the MIC in assay [1] (setting [8]) and in assay [4] (setting [9]) were 0.19 µg/mL (≈ 0.448 µM) and 0.5 µg/mL (≈ 1.18 µM), respectively.

Turning to `CCC[C@@H]1C[C@@H](C(=O)N[C@@H]([C@H]2O[C@H](SC)[C@H](O)[C@@H](O)[C@H]2O)[C@H](C)Cl)N(C)C1` [Clindamycin], in assay [4] (setting [9]), the MIC amounted to 0.064 µg/mL (≈ 0.151 µM).

Turning to `CO[C@H]1/C=C/O[C@@]2(C)Oc3c(C)c(O)c4c(O)c(c(/C=N/N5CCN(C)CC5)c(O)c4c3C2=O)NC(=O)/C(C)=C\C=C\[C@H](C)[C@H](O)[C@@H](C)[C@@H](O)[C@@H](C)[C@H](OC(C)=O)[C@@H]1C` [Rifampin], the MIC in assay [1] (setting [8]) was 0.064 µg/mL (≈ 0.0778 µM). Besides, the “MIC breakpoint for resistance, Lactobacillus spp” value in assay [2] is 32 µg/mL.

As for `CN(C)[C@@H]1C(O)=C(C(N)=O)C(=O)[C@@]2(O)C(O)=C3C(=O)c4c(O)cccc4[C@@](C)(O)[C@H]3C[C@@H]12` [Tetracycline], the results for the MIC in assay [1] (setting [8]) and in assay [4] (setting [9]) were 0.5 µg/mL (≈ 1.13 µM) and 2 µg/mL (≈ 4.5 µM), respectively.

Consider Gentamicin, for which, in assay [3], the “MIC breakpoint for resistance, OHOL” value was 16 µg/mL. Further, the “MIC breakpoint … L. plantarum” value in assay [5] is 16 µg/mL. The MIC was 2 µg/mL in assay [1] (setting [6]) and 1.5 µg/mL in assay [4] (setting [10]). In assay [2], the “MIC breakpoint for resistance, Lactobacillus spp” value is 1 µg/mL.

For `[H]/N=C(/N)N[C@H]1[C@H](O)[C@@H](O)[C@H](O[C@@H]2O[C@@H](C)[C@](O)(C=O)[C@H]2O[C@@H]2O[C@@H](CO)[C@H](O)[C@@H](O)[C@@H]2NC)[C@@H](N/C(N)=N\[H])[C@@H]1O` [Streptomycin], the “MIC breakpoint for resistance, OHOL” value in assay [3] was 16 µg/mL. For the same compound, in assay [4] (setting [9]), the MIC stood at 16 µg/mL (≈ 27.5 µM). For the same compound, the “MIC breakpoint for resistance, Lactobacillus spp” value in assay [2] is 16 µg/mL.

Regarding `CC1(C)S[C@@H]2[C@H](NC(=O)[C@H](N)c3ccccc3)C(=O)N2[C@H]1C(=O)O` [Ampicillin], in assay [3], the “MIC breakpoint for resistance, OHOL” value was 1 µg/mL. Besides, the “MIC breakpoint … L. plantarum” value in assay [5] is 2 µg/mL. The MIC was found to be 0.031 µg/mL (≈ 0.0887 µM) in assay [1] (setting [8]) and 0.094 µg/mL (≈ 0.269 µM) in assay [4] (setting [9]). Also, in assay [2], the “MIC breakpoint for resistance, Lactobacillus spp” value is 2 µg/mL.

`O=C(O)c1cn(C2CC2)c2cc(N3CCNCC3)c(F)cc2c1=O` [Ciprofloxacin]: the MIC in assay [1] (setting [8]) was greater than 32 µg/mL; in assay [4] (setting [9]), 0.38 µg/mL (≈ 1.15 µM). The “MIC breakpoint for resistance, Lactobacillus spp” value in assay [2] was 4 µg/mL.
